Assay results taken from US20100173853A1, “COMBINATION OF MONOSACCHARIDES WITH ASCORBIC ACID AND USE THEREOF” (L'OREAL, priority 2008, published 2010).
“Also recorded” adds a separate entry of the source.

Columns and labels:
[1] = test system: keratinocytes (HaCat line); test: Proliferation of keratinocytes in medium deficient in growth factors (Cyquant, Nile red, XTT probes); type: cell-based; conditions: HaCat keratinocytes in medium depleted in growth factors
Method: The keratinocytes (HaCat line) are cultured under two conditions: whole defined culture medium (standard condition) and culture medium deficient in growth factors. This deficient medium gives rise to a controlled delay in cell proliferation. Under these conditions, it is then possible to measure the effects of compounds capable of compensating for the deficiency in growth factors of the culture medium and thus of relaunching the cell multiplication and/or of stimulating cell metabolism.
The keratinocyte proliferation is measured by means of three markers on the same cell population: the level of DNA, which is proportional to the number of cells (Cyquant probe), the level of constituent polar lipids of cell membranes (Nile red probe) and the mitochondrial respiration, which reflects the general cell metabolism (XTT probe).

type I procollagen = test: Synthesis of procollagen 1 in reconstructed skin (indirect immunofluorescence); type: cell-based, human
Collagen VI Col6A1 = test: Expression of collagen VI alpha 1-chain by dermal fibroblasts (RNA); type: cell-based; conditions: human dermal fibroblasts; Rhamnose 1 mM, Vitamin C 50 μM, alone or associated; D3 or D5 not stated
Method: (§1) This example describes the synergic effect of the association of vitamin C with L-rhamnose on the expression of the alpha 1-chain of collagens VI and XII of the extracellular matrix.
(§2) Human dermal fibroblasts (used at the ninth passage) are obtained from mammary or abdominal surgeries. The culture medium implemented is DMEM, supplemented with: • fetal calf serum (FCS), 10% • L-Glutamine, 2 mM (Invitrogen 25030024), • Penicillin (50 UI/mL), streptomycin (50 μg/mL), (Invitrogen 15070063), • Sodium pyruvate (Invitrogen 11360039), and • Non essential amino acids (Invitrogen 11140035).
(§3) Fibroblasts are cultured (D0) in supplemented DMEM medium as described above, incubated at 37° C. znd 5% CO2 in an atmosphere saturated with water. After adhesion of the cells (D1), the culture medium is removed and replaced with medium containing vitamin C, L-rhamnose or their association. The different stimulation conditions (vitamin C 25 μM, 50 μM, Rhamnose 1 mM and the different associations) were performed in triplicate (12 well dish). Studies of the expression of the different collagenes were performed on D3 and D5.
(§4) For each condition and at each time (D3 and D5), the supernatants are removed and the cell lawns are lysed. […]
(§5) RNAs are then quantified in fluorescence according to the Ribogreen protocol (Quan-it, Ribogreen RNA assay kit, invitrogen R11490) and reading with Tecan Safire. […]

Collagen XII Cola12A1 = test: Expression of collagen XII alpha 1-chain by dermal fibroblasts (RNA); type: cell-based; conditions: human dermal fibroblasts; Rhamnose 1 mM, Vitamin C 50 μM, alone or associated; D3 or D5 not stated
Method: as §1, §2, §3, §4, §5

| SMILES | keratinocyte proliferation (efficacy) ([1]; 500 μM) | level of DNA (Cyquant) ([1]; 1 mM, vs untreated control) | level of polar lipids (Nile red signal) ([1]; 1 mM, vs untreated control) | mitochondrial respiration (XTT signal) ([1]; 1 mM, vs untreated control) | procollagen 1 synthesis (green fluorescence) vs control skin (type I procollagen; 1 mM, 120 hours) | procollagen 1 synthesis (type I procollagen; 5 mM) | intensity of the biosynthesis of Collagen VI (Col6A1) compared to the control that is at 100 (Collagen VI Col6A1) | intensity of the biosynthesis of Collagen XII (Cola12A1) compared to the control that is at 100 (Collagen XII Cola12A1) |
| --- | --- | --- | --- | --- | --- | --- | --- | --- |
| C[C@H](O)[C@H](O)[C@@H](O)[C@@H](O)C=O [Rhamnose, L-rhamnose] | already show efficacy | significantly increased | significantly increased | significantly increased | stimulation; also recorded: marked increase | stimulation | 109 | 115 |
| O=C1O[C@H]([C@@H](O)CO)C(O)=C1O [Vitamin C, ascorbic acid] | – | – | – | – | – | – | 154 | 124 |
